Values joined by “and” are separate entries in the source; they are usually repeats but may differ in a detail not shown here. Equal values may be shown once. Where a name gives a salt, the structure may show the parent alone.
Tests used:
[1] = test system: rats with trigeminal chronic constriction injury (CCI); assay: Whisker pad mechanical allodynia; format: in vivo, rat; conditions: for attenuation of mechanical allodynia: doses as high as 1000 mg/kg; for dose dependence of mechanical threshold at peak time: 2 h after treatment (gabapentin 1 h); for dose dependence of mechanical threshold at peak time / minimal dose required to restore mechanical threshold to baseline: i.p. or p.o.; for peak time of mechanical threshold: i.p. or p.o. treatment; for effective dose decreasing neuropathic hypersensitivity: rodent trigeminal nerve injury models, pioglitazone i.p.; for mechanical threshold 1 h after injection: ELB00824 3 mg/kg i.p. and/or gabapentin 0.3 mg/kg i.p., one-time dose
mice with TIC injury [2] = assay: Light/dark place preference anxiety test in mouse chronic TIC model; format: in vivo; conditions: six weeks; for latency to enter into the lighted chamber: two hours after injection
mice with TIC injury [3] = assay: Zero maze anxiety test in mouse chronic TIC model; format: in vivo; conditions: six weeks, 2 h post treatment; for time spent in the closed area of the maze: ELB00824 10 mg/kg, carbamazepine 30 mg/kg
mice with TIC injury [4] = assay: Whisker pad mechanical allodynia; format: in vivo, mouse; conditions: for allodynia compared to vehicle, ipsilateral side, week 6 / whisker pad mechanical threshold at 2 h post injection, week 3: ELB00824 10 mg/kg i.p., carbamazepine 30 mg/kg i.p.; for time of peak effect: week 3, one-time i.p. dose
rat = conditions: i.p.; cited from earlier work
[5] = Pharmacokinetic/toxicokinetic study and BBB permeability in rats; format: in vivo, rat
rats = assay: Observation of neurobehavioral adverse effects after single treatment in rats; format: in vivo, rat
human PPARɣ receptor = biological target: T1, human PPARɣ receptor (Homo sapiens, UniProt P37231); assay: PPARɣ transactivation luciferase reporter assay in HEK 293 T cells; format: cell-based
T1 sequence (P37231 1-505): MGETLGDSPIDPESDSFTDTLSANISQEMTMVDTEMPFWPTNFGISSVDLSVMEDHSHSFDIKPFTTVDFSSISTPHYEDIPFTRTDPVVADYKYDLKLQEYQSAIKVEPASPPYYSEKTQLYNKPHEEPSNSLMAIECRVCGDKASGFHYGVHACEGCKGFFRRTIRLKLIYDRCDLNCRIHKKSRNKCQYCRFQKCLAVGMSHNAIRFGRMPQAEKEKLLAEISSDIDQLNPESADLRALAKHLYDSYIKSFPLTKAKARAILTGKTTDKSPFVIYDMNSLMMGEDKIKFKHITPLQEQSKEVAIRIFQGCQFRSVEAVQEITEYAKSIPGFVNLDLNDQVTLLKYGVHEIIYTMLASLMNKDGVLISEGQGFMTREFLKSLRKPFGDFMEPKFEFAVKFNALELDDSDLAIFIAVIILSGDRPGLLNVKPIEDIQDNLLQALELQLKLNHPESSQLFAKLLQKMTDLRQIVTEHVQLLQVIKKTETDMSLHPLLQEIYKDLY

hERG potassium channel = hERG potassium channel (Homo sapiens, UniProt Q12809); assay: In vitro cardiovascular toxicity study; format: biochemical
Sequence of hERG potassium channel (Q12809 whole entry): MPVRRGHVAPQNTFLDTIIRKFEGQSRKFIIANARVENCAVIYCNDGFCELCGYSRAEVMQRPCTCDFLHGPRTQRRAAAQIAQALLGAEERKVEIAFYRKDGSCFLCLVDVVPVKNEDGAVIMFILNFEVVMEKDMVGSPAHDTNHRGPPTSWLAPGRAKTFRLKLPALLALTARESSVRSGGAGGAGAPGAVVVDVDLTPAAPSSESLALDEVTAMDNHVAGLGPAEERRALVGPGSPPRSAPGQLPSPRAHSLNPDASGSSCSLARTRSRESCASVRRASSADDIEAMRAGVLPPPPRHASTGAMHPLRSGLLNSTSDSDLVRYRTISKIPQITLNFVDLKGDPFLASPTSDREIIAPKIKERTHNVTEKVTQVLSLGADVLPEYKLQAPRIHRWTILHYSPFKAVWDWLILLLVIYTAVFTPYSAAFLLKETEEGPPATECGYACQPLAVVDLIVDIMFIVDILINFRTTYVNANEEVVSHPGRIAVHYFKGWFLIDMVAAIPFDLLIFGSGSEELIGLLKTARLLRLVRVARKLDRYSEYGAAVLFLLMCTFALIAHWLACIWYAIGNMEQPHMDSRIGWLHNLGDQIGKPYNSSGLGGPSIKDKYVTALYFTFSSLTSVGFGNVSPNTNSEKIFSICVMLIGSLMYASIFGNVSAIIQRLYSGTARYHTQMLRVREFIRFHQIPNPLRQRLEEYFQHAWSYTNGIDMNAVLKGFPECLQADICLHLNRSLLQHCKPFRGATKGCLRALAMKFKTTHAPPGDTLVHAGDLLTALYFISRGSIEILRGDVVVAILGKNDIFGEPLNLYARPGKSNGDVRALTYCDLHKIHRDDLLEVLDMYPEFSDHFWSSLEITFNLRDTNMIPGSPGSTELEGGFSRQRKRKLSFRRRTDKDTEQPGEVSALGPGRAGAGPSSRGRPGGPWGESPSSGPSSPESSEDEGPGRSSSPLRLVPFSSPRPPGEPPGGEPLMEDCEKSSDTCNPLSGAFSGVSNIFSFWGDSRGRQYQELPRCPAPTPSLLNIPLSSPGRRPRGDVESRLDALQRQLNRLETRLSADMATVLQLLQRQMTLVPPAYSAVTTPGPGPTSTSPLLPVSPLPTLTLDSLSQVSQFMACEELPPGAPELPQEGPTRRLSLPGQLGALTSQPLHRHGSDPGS

[6] = test system: mouse bone marrow erythroblast; assay: Genotoxicity study, micronucleus test; format: in vivo; conditions: up to highest concentration 500 mg/kg, intraperitoneal
Sprague-Dawley rats = assay: Preliminary 14-day repeat dose toxicity study in rats; format: in vivo, rat
[7] = male, Sprague-Dawley, rat, plasma, ip, 10 mg/kg
[8] = rat brain, 10 mg/kg i.p., 10 mg/kg
[9] = Sprague-Dawley, rat, plasma, po, 10 mg/kg
[10] = from AUC in μM·h, rat, 10 mg/kg i.p.
[11] = from AUC in μM·h, rat, 10 mg/kg i.p., 10 mg/kg
[12] = from AUC in μg·h/mL, rat, 10 mg/kg i.p.
[13] = from Cmax in μM, rat, 10 mg/kg i.p.
[14] = from Cmax in μM, rat, 10 mg/kg i.p., 10 mg/kg
[15] = from Cmax in μg/mL, rat, 10 mg/kg i.p.

## CC(=O)Nc1ccc(O)cc1 [acetaminophen, reference compound]
[1]
  attenuation of mechanical allodynia: neither acetaminophen nor ibuprofen attenuated mechanical allodynia

## NC(=O)N1c2ccccc2C=Cc2ccccc21 [carbamazepine, reference compound]
Mice with TIC injury [2]
  latency to enter into the lighted chamber: decreased latency
Mice with TIC injury [3]
  latency to move to the closed area: significantly increased latency
  time spent in the closed area of the maze: did not show significant differences
Mice with TIC injury [3]; vs vehicle
  zone transitions: significantly more
Mice with TIC injury [4]
  allodynia compared to vehicle, ipsilateral side, week 6: significantly improved allodynia
  whisker pad mechanical threshold at 2 h post injection, week 3: 1.4 ± 0.2 g
  time of peak effect: 2 h

## CCc1ccc(CCOc2ccc(CC3SC(=O)NC3=O)cc2)nc1 (stereo not shown) [Pioglitazone, pioglitazone hydrochloride, reference compound]
rat
  rat LD50: 558 to 587 mg/kg
[5]; male, Sprague-Dawley, rat, brain, ip, 10 mg/kg
  Tmax: 1 h
[5]; [7]
  AUC(0-t): 34500 ng·h/mL and 87.7 µM·h
  Cmax: 9770 ng/mL and 24.9 µM
[5]; [8]
  Brain Cmax: 0.68 ± 0.14 μg/mL and 1.73 ± 0.22 μM
rats; 300 mg/kg i.p. or p.o., most rats, beginning one day after treatment
  toxic signs and symptoms: showed toxic signs and symptoms
[1]
  dose dependence of mechanical threshold at peak time: dose-dependently increased the mechanical threshold
  minimal dose required to restore mechanical threshold to baseline: 1000 mg/kg
  peak time of mechanical threshold: 2 h
  effective dose decreasing neuropathic hypersensitivity: 1000 mg/kg

## CC(C)Cc1ccc(C(C)C(=O)O)cc1 (stereo not shown) [ibuprofen, reference compound]
[1]
  attenuation of mechanical allodynia: neither acetaminophen nor ibuprofen attenuated mechanical allodynia

## CCc1ccc(CC/C=C/c2ccc3c(c2)C(=O)CC3)cc1 [ELB00824, (E)-6–(4-(4-ethylphenyl)but-1-en-1-yl)-2,3-dihydro-1H-inden-1-one]
Human PPARɣ receptor
  maximal activities (% control), PPARɣ activation: 45 ± 4%
Mice with TIC injury [2]; compared with carbamazepine
  occupancy time and number of times that rearing occurred: less robust anti-anxiety behaviors
Mice with TIC injury [2]
  latency to enter into the lighted chamber: 10 ± 12 s
[5]; Sprague-Dawley, rat, brain, po, 10 mg/kg
  Tmax: 3 h
[5]; [9]
  AUC(0-t): 3030 ng·h/mL
  Cmax: 350 ng/mL
  Tmax: 1 h
[5]; [10]
  Plasma AUC0–24h ratio ELB00824/Pioglitazone: 0.3
  Plasma AUC0–24h ratio ELB00824/Rosiglitazone: 0.4
[5]; [11]
  Brain AUC0–24h ratio ELB00824/Pioglitazone: 15
  Brain AUC0–24h ratio ELB00824/Rosiglitazone: 21
[5]; [12]
  Brain AUC0–24h ratio ELB00824/Pioglitazone: 11
  Brain AUC0–24h ratio ELB00824/Rosiglitazone: 17
  Plasma AUC0–24h ratio ELB00824/Pioglitazone: 0.2
  Plasma AUC0–24h ratio ELB00824/Rosiglitazone: 0.3
[5]; [13]
  Plasma Cmax ratio ELB00824/Pioglitazone: 0.2
  Plasma Cmax ratio ELB00824/Rosiglitazone: 0.3
[5]; [14]
  Brain Cmax ratio ELB00824/Pioglitazone: 5.4
  Brain Cmax ratio ELB00824/Rosiglitazone: 6.7
[5]; [15]
  Brain Cmax ratio ELB00824/Pioglitazone: 4.0
  Brain Cmax ratio ELB00824/Rosiglitazone: 5.5
  Plasma Cmax ratio ELB00824/Pioglitazone: 0.1
  Plasma Cmax ratio ELB00824/Rosiglitazone: 0.2
[5]; male, Sprague-Dawley, rat, brain, po, 10 mg/kg
  concentration at 1 h: 1160 ng/mL and 4.01 µM
[5]; male, Sprague-Dawley, rat, brain, po, 30 mg/kg
  concentration at 1 h: 4110 ng/mL and 14.2 µM
[5]; male, Sprague-Dawley, rat, brain, po, 120 mg/kg
  concentration at 1 h: 7570 ng/mL and 26.1 µM
[5]; male, Sprague-Dawley, rat, brain, po, 450 mg/kg
  concentration at 1 h: 11000 ng/mL and 38 µM
[5]; male, Sprague-Dawley, rat, brain/plasma, ip, 10 mg/kg
  Kp: 5.13
[5]; [7]
  AUC(0-t): 6550 ng·h/mL and 22.6 µM·h
  Cmax: 1120 ng/mL and 3.85 µM
  Tmax: 0.5 h
[5]; male, Sprague-Dawley, rat, plasma, po, 10 mg/kg
  concentration at 1 h: 270 ng/mL and 940 nM
[5]; male, Sprague-Dawley, rat, plasma, po, 30 mg/kg
  concentration at 1 h: 820 ng/mL and 2.81 µM
[5]; male, Sprague-Dawley, rat, plasma, po, 120 mg/kg
  concentration at 1 h: 1510 ng/mL and 5.2 µM
[5]; male, Sprague-Dawley, rat, plasma, po, 450 mg/kg
  concentration at 1 h: 2200 ng/mL and 7.57 µM
[5]; rat brain, 10 mg/kg p.o.
  Brain AUC0–24h: 10370 ng·h/mL
  Brain Cmax: 1.82 µg/mL
[5]; rat plasma, 10 mg/kg i.p.
  plasma Cmax and AUC0–24h relative to those of pioglitazone or rosiglitazone: less than 0.3 fold
[5]; rat, 10 mg/kg
  relative brain bioavailability (AUC0–24h) of oral versus i.p. injection: 31%
  relative plasma bioavailability (AUC0–24h) of oral versus i.p. injection: 46%
hERG potassium channel
  IC50: > 30 µM
[6]
  chromosome damage in mouse bone marrow erythroblast: did not induce a significant increase of chromosome damage
Mice with TIC injury [3]
  latency to move to the closed area: 11.6 ± 3.9 s
  time spent in the closed area of the maze: 103 ± 21 s
Sprague-Dawley rats; day 15, male and female
  hematological, blood coagulation and serum biochemistry parameters (55 parameters) compared with controls: No significant changes
Sprague-Dawley rats; male 450 mg/kg group, day 15
  hemoglobin and hematocrit values vs control: slightly lower hemoglobin and hematocrit values
Mice with TIC injury [4]; 10 mg/kg i.p.
  allodynia compared to vehicle, contralateral side, week 6: significantly improved allodynia
Mice with TIC injury [4]; 2 h post injection
  mechanical threshold relative to carbamazepine, week 3: 4.3 fold
Mice with TIC injury [4]
  allodynia compared to vehicle, ipsilateral side, week 6: significantly improved allodynia
  whisker pad mechanical threshold at 2 h post injection, week 3: 6 ± 0.0 g
  time of peak effect: 2 h
rats; doses of up to 1000 mg/kg i.p. or p.o., one week observation
  observable neurobehavioral adverse effects: not discernable
[1]; 2.5 mg topical (7% cream, 50 mg/cm^2)
  mechanical threshold at 1.5 h: 8.9 ± 1.5 g
[1]; 5 mg topical (7% cream, 100 mg/cm^2)
  mechanical threshold at 1.5 h: 19.7 ± 3.1 g
[1]; 10 mg/kg i.p.
  mechanical threshold at 3 h after treatment: 3.5 ± 0.9 g
[1]; 10 mg/kg i.p., 1 h, 5-14 days post-CCI
  ipsilateral whisker pad mechanical threshold: 11.4 ± 2.2 g
[1]; 10 mg/kg i.p., 2 h, ELB00824 only
  ipsilateral whisker pad mechanical threshold (peak): 14.9 ± 2.5 g
[1]; 10 mg/kg p.o.
  mechanical threshold at 3 h after treatment: 2.8 ± 0.5 g
[1]
  dose dependence of mechanical threshold at peak time: dose-dependently increased the mechanical threshold
  mechanical threshold 1 h after injection: 2.5 ± 0.3 g
  minimal dose required to restore mechanical threshold to baseline: 10 mg/kg
  peak time of mechanical threshold: 2 h
  effective dose decreasing neuropathic hypersensitivity: 10 mg/kg
[1]; higher dose topical
  onset of symptom relief: 0.5 h
[1]; systematic treatment, either i.p. or p.o., 10 mg/kg
  onset of symptom relief: 1 h
[1]; topical treatment
  mechanical threshold at 3 h after treatment: 8.9 ± 1.1 g

## O=C(Nc1ccccc1)c1cc([N+](=O)[O-])ccc1Cl [GW9662, reference compound]
[1]; 10–30 mg/kg i.p. alone, 1 to 4 h after injection
  change of mechanical threshold: did not change mechanical threshold

## NCC1(CC(=O)O)CCCCC1 [gabapentin, reference compound]
[1]; 1 mg/kg single i.p. injection
  time at which threshold was reduced to previous allodynic levels: 2 h
[1]
  dose dependence of mechanical threshold at peak time: dose-dependently increased the mechanical threshold
  mechanical threshold 1 h after injection: 4.9 ± 1.2 g
  peak time of mechanical threshold: 1 h

## CN(CCOc1ccc(CC2SC(=O)NC2=O)cc1)c1ccccn1 (stereo not shown) [Rosiglitazone, rosiglitazone, reference compound]
[5]; [7]
  AUC(0-t): 22800 ng·h/mL and 63.7 µM·h
  Cmax: 4500 ng/mL and 12.6 µM
[5]; [8]
  Brain Cmax: 0.50 ± 0.06 μg/mL and 1.41 ± 0.27 μM
[1]
  attenuation of mechanical allodynia: did not attenuate mechanical allodynia

Reference: paper PMC6843736 (Molecular Pain, 2019)
